Consider three compounds from patent US8471063B2, “Michael systems as transglutaminase inhibitors” (Zedira GmbH, priority 2006, dated 2013).

Like-named read-outs stand apart in the source and are kept apart here. *1 amine or outer side, *2 acyl side, *3 side chain or, on linkers, in order; H or OH if unused. Where a SMILES comes first, the peptide text is derived from it. [ ]: non-standard residue; d: D form. X3 = O=C([C@H](CC/C=C/[N+](=O)[O-])N[*:1])[*:2]; Phe(2,4-Cl2) = N[C@@H](Cc1ccc(Cl)cc1Cl)C(=O)O; X1 = CN(C)C(=O)/C=C/CC[C@H](N[*:1])C(=O)[*:2]; X4 = O=C([C@@H]1C(O)c2ccccc2CN1[*:1])[*:2]; hCit = NC(=O)NCCCC[C@H](N)C(=O)O; Aib = CC(C)(N)C(=O)O

Type in all cases: biochemical
One experiment has as its target T1, TG6 (Homo sapiens, UniProt O95932).
T1 construct: His6 (N); made in house; host or cells: E. coli BL21 (DE3)
T1 sequence (O95932 1-706): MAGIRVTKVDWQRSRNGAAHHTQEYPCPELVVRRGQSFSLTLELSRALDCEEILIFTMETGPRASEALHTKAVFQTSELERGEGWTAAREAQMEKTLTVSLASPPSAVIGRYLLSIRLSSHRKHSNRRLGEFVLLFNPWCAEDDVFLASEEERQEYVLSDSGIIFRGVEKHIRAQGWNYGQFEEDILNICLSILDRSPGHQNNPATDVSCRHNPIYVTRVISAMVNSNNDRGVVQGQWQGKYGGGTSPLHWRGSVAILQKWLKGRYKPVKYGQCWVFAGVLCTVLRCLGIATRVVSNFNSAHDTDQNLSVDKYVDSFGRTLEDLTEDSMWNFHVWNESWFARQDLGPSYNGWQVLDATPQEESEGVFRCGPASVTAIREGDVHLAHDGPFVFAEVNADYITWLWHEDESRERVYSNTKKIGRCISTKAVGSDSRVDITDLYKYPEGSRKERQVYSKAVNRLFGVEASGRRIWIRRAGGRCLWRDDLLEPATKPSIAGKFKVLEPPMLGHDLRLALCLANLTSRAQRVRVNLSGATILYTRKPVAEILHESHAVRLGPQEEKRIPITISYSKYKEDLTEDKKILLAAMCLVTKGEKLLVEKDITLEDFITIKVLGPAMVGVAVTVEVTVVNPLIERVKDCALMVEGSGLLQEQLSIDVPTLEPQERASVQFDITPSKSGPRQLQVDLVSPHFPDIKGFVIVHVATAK
As to the kind of experiment: Transglutaminase inhibition, IC50 at TG6. The protocol:
(§1) The genes encoding for TG6 and TG7 were amplified from TG6-cDNA and TG7-cDNA, respectively, with PCR according to standard procedures (both state-of-the-art according to U.S. Pat. No. 7,052,890). Through the primers used a NdeI restriction site and six histidine codons were inserted at the 5′ end and a BgIII restriction site (TG6) and a HindIII restriction site (TG7) at the 3′ end.
(§2) The Tg6 PCR product was treated with the restriction endonucleases NdeI and BgIII. In the NdeI and BamH I restricted vector pET 3a was inserted. The Tg7 PCR product was treated with the restriction endonucleases NdeI and HindIII. and in the likewise restricted vector pET 28b was inserted.
(§3) The E. coli strain BL21 (DE3) (Novagen, Darmstadt) was transformed with the obtained plasmids. A culture of one strain each was induced with IPTG and harvested. After cell disruption under high pressure homogenisation the disrupts were centrifuged and the supernatants were purified via metal ion affinity chromatography on HiTrap chelating HP columns (GE-Helathcare). The purified proteins TG6 and TG7 were analyzed by SDS-PAGE with Coomassie staining. All procedures used for the production of TG6 and TG7 are well known to the one skilled in the art.

The target of another experiment is T2, TG3 (Homo sapiens, UniProt Q08188).
T2 sequence (Q08188 1-693): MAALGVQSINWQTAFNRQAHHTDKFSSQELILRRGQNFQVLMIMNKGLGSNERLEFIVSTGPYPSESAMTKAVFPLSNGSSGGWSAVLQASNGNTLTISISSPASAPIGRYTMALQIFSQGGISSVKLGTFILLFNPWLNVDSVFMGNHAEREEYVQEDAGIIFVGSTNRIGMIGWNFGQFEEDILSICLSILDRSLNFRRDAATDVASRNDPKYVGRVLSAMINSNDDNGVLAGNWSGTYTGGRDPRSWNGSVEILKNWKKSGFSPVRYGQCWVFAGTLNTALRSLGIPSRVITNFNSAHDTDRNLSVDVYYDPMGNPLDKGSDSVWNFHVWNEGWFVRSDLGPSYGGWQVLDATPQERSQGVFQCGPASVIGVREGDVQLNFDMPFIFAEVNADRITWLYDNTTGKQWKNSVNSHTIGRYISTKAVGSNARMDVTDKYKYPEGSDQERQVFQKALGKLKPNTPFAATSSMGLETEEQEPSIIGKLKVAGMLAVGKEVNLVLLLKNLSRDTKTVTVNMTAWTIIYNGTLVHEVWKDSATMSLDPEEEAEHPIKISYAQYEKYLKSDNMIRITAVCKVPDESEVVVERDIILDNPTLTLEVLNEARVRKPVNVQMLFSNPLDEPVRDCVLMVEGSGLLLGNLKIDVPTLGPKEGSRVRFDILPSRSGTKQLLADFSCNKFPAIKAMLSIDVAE
As to the kind of experiment: Transglutaminase inhibition, IC50 at TG3.

Another experiment concerns the target T3, TG7 (Homo sapiens, UniProt Q96PF1).
T3 construct: His6 (N); made in house; host or cells: E. coli BL21 (DE3)
T3 sequence (Q96PF1 1-710): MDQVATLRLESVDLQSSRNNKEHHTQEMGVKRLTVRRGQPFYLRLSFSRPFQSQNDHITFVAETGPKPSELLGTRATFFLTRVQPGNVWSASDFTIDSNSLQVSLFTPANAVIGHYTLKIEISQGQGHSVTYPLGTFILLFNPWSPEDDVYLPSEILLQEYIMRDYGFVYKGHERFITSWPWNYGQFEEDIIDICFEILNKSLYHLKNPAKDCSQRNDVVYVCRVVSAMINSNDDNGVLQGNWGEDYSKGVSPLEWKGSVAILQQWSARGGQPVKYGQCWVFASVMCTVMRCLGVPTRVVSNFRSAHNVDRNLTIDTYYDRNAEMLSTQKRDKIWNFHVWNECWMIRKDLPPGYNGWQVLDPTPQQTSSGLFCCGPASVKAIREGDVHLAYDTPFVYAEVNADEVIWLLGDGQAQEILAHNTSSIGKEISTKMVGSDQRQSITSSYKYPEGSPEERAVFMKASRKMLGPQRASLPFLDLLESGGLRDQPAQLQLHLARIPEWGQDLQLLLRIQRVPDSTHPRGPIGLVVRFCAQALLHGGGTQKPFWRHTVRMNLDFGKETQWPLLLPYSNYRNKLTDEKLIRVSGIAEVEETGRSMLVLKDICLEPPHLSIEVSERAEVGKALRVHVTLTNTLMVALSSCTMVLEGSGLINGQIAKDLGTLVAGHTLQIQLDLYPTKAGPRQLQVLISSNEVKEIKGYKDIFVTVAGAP
Kind of experiment: Transglutaminase inhibition, IC50 at TG7. As to the method: as §1, §2, §3

Where [1] appears, read: Table 2, read-out: IC50 value [TG6].
Setting [2] is: Table 2, read-out: IC50 value [TG3].
[3] abbreviates: Table 2, read-out: IC50 value [TG7].

Turning to `CC[C@H](C)[C@H](NC(=O)[C@H](CCC(N)=O)NC(=O)[C@H](CC/C=C/C(=O)N(C)C)NC(=O)[C@H](Cc1ccc(Cl)cc1Cl)NC(=O)C(C)(C)NC(C)=O)C(=O)N[C@H](C(=O)O)C(C)C` [Compound 3.2.13] (Ac-[Aib][Phe(2,4-Cl2)][X1]QIV-OH), the concentration for half-maximal inhibition (IC50) (usually the concentration needed to halve the response being measured) on TG6 (setting [1]) was 4 µM; at TG3 (setting [2]) it was > 100 µM; on TG7 (setting [3]), 46 µM.
Regarding `CC(=O)N[C@@H](CCC(N)=O)C(=O)N[C@@H](CCC(N)=O)C(=O)N[C@@H](CC/C=C/[N+](=O)[O-])C(=O)N[C@H](C(=O)N[C@@H](CCCCNC(N)=O)C(=O)N[C@@H](CCC(N)=O)C(=O)N1Cc2ccccc2C(O)[C@H]1C(N)=O)C(C)C` (stereo partly drawn) [Compound 3.2.14] (Ac-QQ[X3]V[hCit]Q[X4]-NH2), the IC50 on TG6 (setting [1]) is > 100 µM; at TG3 (setting [2]), 2.3 µM; at TG7 (setting [3]) it was > 100 µM.
In the case of `CC(=O)N[C@@H](CCl)C(=O)N1CSC[C@H]1C(=O)N[C@@H](CC/C=C/C(=O)c1ccc([N+](=O)[O-])cc1)C(=O)N[C@@H](CCC(N)=O)C(=O)N[C@@H](CC1CCCCC1)C(=O)Nc1ccc(C(=O)O)cc1` [Compound 3.2.16], the IC50 against TG6 was determined as 2 µM; against TG3, 48 µM; against TG7, 3.4 µM.
